Measurements: patent publication US7985773B2 (American Sterilizer Company, priority 2004, dated 2011)
Where “and” joins values, the source holds several entries; their conditions need not be identical. Equal entries are not always repeated.

System: Serratia marcescens ATCC 14756
Test: Residual activity testing procedure on pigskin
Assay type: cell-based
Details: for antimicrobial activity (in words): additives of Table II in the Table I base; for antimicrobial activity (in words) / Average Series: FIG. 1; for Average Series: average log reduction of all four series; for Average Log Reduction: average of two series; for Log Value: log of colony forming units remaining; for Log Value / Log Reduction: single series; for log reduction values and antimicrobial activity (in words): compositions of Table V, additive at 0.5 parts per 100 parts
Experimental: The gram negative organism was grown for approximately 24 hours at 30° C. and then suspended in Butterfields Buffer to a count of 1×10^8. The pigskins were prepared according to the following standard of procedure. Pigskin hides are collected on the date of slaughter and processed on the same day by removing adipose tissue and thoroughly cleaning the hide. Both of these processes are accomplished by spraying both sides of the pig hide with a high pressure washer. No soap or detergents are used at any time during the processing of pig hides for laboratory use. After cleaning and de-fatting, pigskins are placed in water and frozen at the farm from which they were harvested. When required for laboratory testing, a representative procures the hides and thaws them for laboratory manipulation. In the laboratory, these hides are cut into manageable pieces with a scalpel and coarse hair removed with animal grooming clippers. Disposable razors are further employed to create a smooth surface without negatively affecting the skin surface. These pieces are then sterilized by Gamma irradiation and kept frozen until use in a study. Testing circles were then punched out of the pigskins and glued to a phenolic cap. The testing samples were placed in a 30° C. oven to equilibrate for at least 20 minutes. Each skin was treated with 150 μl of test product and rubbed for 30 seconds as a pair, skin to skin. The skins were allowed to dry for 30 seconds and then the test product was reapplied four times in the same manner. The skins were allowed to dry in a slightly opened hood for 15 minutes. After drying the skins were inoculated with 31 μl of the Serratia marcescens inoculum, as prepared above, rubbed for 15 seconds, and sampled after three minutes. To sample, a sterile 3.5 cm diameter cylinder is placed, lip side down, over the pigskin on the cap. Enough pressure is applied to the cylinder to prevent any leakage upon the addition of an appropriate volume of liquid sampling solution to the cylinder. The skin is then debrided, using a sterile policeman, for 30 seconds by rubbing the surface of the skin with the flat edge of the policeman with enough pressure to remove any microorganisms that might be on the surface. Two mL of the sampling solution are removed using a sterile pipet and are utilized for preparing serial dilutions and aerobic plate counts to establish the number of Colony Forming Units remaining.

[1] = additive at the active % listed in Table III in the Table I base
[2] = additive at 0.5 parts by weight per 100 parts total composition in the Table I base, FIG. 2
[3] = additive at 0.5 parts by weight per 100 parts total composition in the Table I base
[4] = additive at the active % listed in Table III in the Table I base, pigskin residual activity

Compound	Average Series [1]	Average Log Reduction [2]	Log Value [3]	Log Reduction [3]	further results
OCCOc1ccccc1 [Phenoxyethanol, Phenoxyethanol (ethylene glycol phenyl ether)]	3.39				antimicrobial activity (in words): enhanced antimicrobial activity
Sodium Coco PG-Dimonium chloride phosphate		0.40	5.69 and 5.71	0.41 and 0.39	
Babbassuamidopropalkonium Chloride		0.35	5.82 and 5.68	0.28 and 0.42	
CCCCCCCCCCCCCCCCCC[N+](C)(C)Cc1ccccc1.[Cl-] [Stearalkonium chloride]		0.25	5.93 and 5.77	0.17 and 0.33	
Quaternium 26		−0.07	6.20 and 6.13	−0.11 and −0.03	
CC(C)(C)CC(C)(C)c1ccc(OCCOCC[N+](C)(C)Cc2ccccc2)cc1 [Benzethonium Chloride, Benzethonium chloride]	0.17				
CCCCCCCCCCCC(=O)OCC(O)CO (stereo not shown) [Glyceryl monolaurate]	−0.21				
CCCCCCCCCC(=O)OCC(O)CO (stereo not shown) [Glyceryl caprate]			5.17 and 5.19		
COC(=O)c1ccc(O)cc1 [Methyl paraben]	0.03				
CCCCCCCCCCCCCCCC[N+](C)(C)C.[Cl-] [Cetrimonium chloride]		1.24	4.87 and 4.85	1.23 and 1.25	
Oc1cc(Cl)ccc1Oc1ccc(Cl)cc1Cl [Triclosan]	−0.04				
CCCCCCCCCCCCCCCCCCCCCC[N+](C)(C)C.[Cl-] [Behentrimonium chloride]		0.33	5.78 and 5.76	0.32 and 0.34	
CCCOC(=O)c1ccc(O)cc1 [Propyl paraben]	0.40				
CCCCCCCCCCCCCCCCCCCCCC[N+](C)(C)C.COS(=O)(=O)[O-] [Behentrimonium methosulfate]	5.39	5.25			antimicrobial activity (in words): enhanced antimicrobial activity; log reduction values and antimicrobial activity (in words): excellent log reduction values
CC(O)C(=O)O.CCCCCCCCCCCCCCCCCC(=O)NCCCN(C)C [Stearamidopropyl dimethylamine lactate]			6.22 and 6.05		
CCCCCCCCCCCCCCCCCCCCCC[N+](C)(C)Cc1ccccc1.[Cl-] [Behenalkonium chloride, Behenalkonium Chloride]		4.41	1.60 and 1.78	4.50 and 4.32	log reduction values and antimicrobial activity (in words): excellent log reduction values
Cocoamidopropyl PG dimonium chloride	−0.04				Average Log Reduction [4]: −0.13 and 0.04
CCCCCCCC/C=C\CCCCCCCC[N+](C)(C)Cc1ccccc1.[Cl-] [Olealkonium chloride, Olealkonium Chloride]		0.31	5.76 and 5.81	0.34 and 0.29	
C[N+](C)(C)CCCNC(=O)C=Cc1ccccc1.[Cl-] [Cinnamidopropyl trimethylammonium chloride]		0.05	5.98 and 6.12	0.12 and −0.02	
Isostearyamidopropyl morpholine lactate		−0.09	6.17 and 6.20	−0.07 and −0.10	
IPEG-3 Dioleylamidoethylmonium methosulfate		0.27	5.84 and 5.81	0.26 and 0.29	
Cc1cc(O)cc(C)c1Cl [PCMX]	0.16				Average Log Reduction [4]: 0.06 and 0.26
CCCCCCCCCCCCCCCCCCCCCC(=O)NCCC[N+](C)(C)CCO.[Cl-] [Hydroxyethyl behenamidopropyldimonium chloride]		0.63			
